Laboratory results taken from ChEMBL document CHEMBL3988442, “University of Dundee, Small-Polar-MMV Screening Library” (2021).

Legend:
[1] = microbe, parasite or virus in culture; details: Mycobacterium tuberculosis, 72 h, read-out: pIC50 (converted)
[2] = microbe, parasite or virus in culture; details: Mycobacterium tuberculosis, 96 h, read-out: pIC50 (converted)

Compound | IC50 [1] [µM] | IC50 [2] [µM]
N#CCCCn1nnnc1Cc1ccc(Br)cc1 | > 50.1 | 
CCc1c(C)nc(-n2nc(-c3cccs3)cc2N)[nH]c1=O | 44 | 
CCc1nc2c(NCC3COc4c(cccc4OC)C3)ncnc2o1 (stereo not given) |  | > 50.1
CCSc1ncc(CN2CCN(c3ncc(C)c(N)n3)CC2)cn1 |  | 20.4
Cc1cccc(-c2noc([C@@H]3Cc4nc[nH]c4CN3)n2)c1 | 1.94 | 
Cc1cccc2cc(CO)c(N3Cc4cnc(C(C)(C)C)nc4C3)nc12 | > 50.1 | 
CO[C@H]1C[C@@H]2CN(C(=O)c3ccc(C)s3)C[C@@H]2C1 |  | 22.3
CC(=O)N1CCC(N2CCOC[C@H]2c2nc(-c3ccc(Cl)s3)c[nH]2)CC1 |  | > 50.1
Fc1ccccc1CN1CCCC2(CCN(c3ncccn3)C2)C1 (stereo not given) | 30.4 | 
COc1cccc(-c2cnc(CNC(C)(C)c3nc(C)cs3)o2)c1 |  | > 50.1
Cc1cc(CC(=O)NCCCc2ccncc2)on1 | > 501 | 
NC1CCS(=O)(=O)c2ccc(Br)cc21 (stereo not given) |  | 89.1
CCCC1c2cccn2CCN1C(=O)Cn1cnc2sc(C)cc2c1=O (stereo not given) |  | > 50.1
Cc1cc(N2Cc3cnn(CCO)c3C2)nc(-c2ccccc2O)n1 | > 50.1 | 
Cc1csc(N2CCCN(CCC(=O)NC(N)=O)CC2)n1 | 39.4 | 
CCc1nnc(CN(C)CC2CCCCC2)o1 | > 50.1 | 
CN(C)CCN1C(=O)CCC12CCCN(C(=O)c1cccnc1)CC2 (stereo not given) |  | > 50.1
NCCn1nc(C2CCN(C(=O)Cc3ccccc3)C2)c2nccnc21 (stereo not given) |  | > 50.1
Cc1ccc(CNCC2Cn3nnc(-c4cccc(F)c4)c3CO2)o1 (stereo not given) | 8.85 | 
Cc1cc(F)ccc1CN1CCCC(O)(CN2CCCC2)C1 (stereo not given) | > 50.1 | 
CC(C)CN1Cc2nc(N3CCCC3)ncc2C1=O |  | > 50.1
O=C1N(c2ccccc2)C[C@H]2CN(C3CCC3)CCN12 | 7.22 | 
COc1coc(CN2CCCC(CCc3c(F)cccc3F)C2)cc1=O (stereo not given) |  | 9.45
Cc1nc(CN2CCC(NS(C)(=O)=O)CC2)co1 | > 50.1 | 
CN1CCCC1c1cc2cccnc2n1Cc1ccc(F)cc1 (stereo not given) |  | > 50.1

Compound | IC50 [1] [µM] | IC50 [2] [µM]
COc1ccc(S(=O)(=O)N2CCC(Cn3ccnc3)CC2)cc1 |  | > 50.1
O=C1N(Cc2ccc(F)c(F)c2)CCCC12CCN(C1CCCC1)C2 (stereo not given) | > 50.1 | 
COc1ccc(C[C@H]2CN(C(=O)CN(C)C)CC[C@H]2OC)cc1 |  | > 50.1
Cc1cc2c(cc1Cl)C=CC1(CCN(CC(=O)N3CCCC3)CC1)O2 | > 50.1 | 
Cc1nn(C)c2c(N3CCN(C)CC3)nc(C3CC3)nc12 | 47.6 | 
Cc1cc(NCCN)nc(-c2ccccc2O)n1 | > 50.1 | 
CCCc1nc(CN(CCO)Cc2cc(Br)ccc2F)no1 | 18.9 | 
COc1cc(C(=O)NCCc2ccccc2OC)on1 | > 50.1 | 
Cc1cccnc1CN(C)C(C(=O)O)c1ccc(-c2ccn[nH]2)cc1 (stereo not given) | > 50.1 | 
CCNC(=O)CCCC(=O)N1CCc2cc(Cl)cc(Cl)c2C1 | > 50.1 | 
O=c1oc(-c2ccc(F)cc2)nn1CC1CCOC1 (stereo not given) | 34.3 | 
c1ccc(-c2nc3c(c(NCCc4c[nH]cn4)n2)CCNC3)cc1 | 10.9 | 
CC(Cn1cccn1)NS(=O)(=O)Cc1ccccc1 (stereo not given) | > 50.1 | 
COc1cnc(C2(O)CCN(C(=O)c3cccnc3)CC2)c(OC)n1 | > 50.1 | 
O=C(CCC(F)(F)F)NCC1CCCS1 (stereo not given) | 8.35 | 
Cc1nc(-c2cc(F)c3c(c2)CC(CN)O3)c[nH]1 (stereo not given) | 2.55 | 
Cc1nnc(CN(Cc2ccccc2Br)C2CC2)o1 | 20.1 | 
COc1cccc(CN2CCCC2c2c(C)nn(C)c2C)c1 (stereo not given) | 46.9 | 
Cc1nc(CNC(=O)Nc2ccc3c(c2)CCCC(=O)N3)sc1C | > 50.1 | 
CCCn1cc(Cl)c(C(=O)N2C[C@@H](O)[C@H](Oc3ccccc3)C2)n1 | > 50.1 | 
Cc1ccccc1NC1CCN(C(=O)CCc2ccco2)CC1 | > 50.1 | 
Cc1ccc(NC(=O)c2ncc(C(N)=O)cc2Cl)cc1F | > 50.1 | 
COCCN(Cc1ccccc1)Cc1nc(-c2ccsc2)no1 | 20.5 | 
O=C1N(Cc2ccc(F)cc2)CCCC12CCN(C1CCSCC1)C2 (stereo not given) | > 50.1 | 
Cc1noc(C[C@@H]2COC[C@H]3CN(C(=O)C4=CCCC4)C[C@@H]23)n1 | > 50.1 | 
